{
  "source": "patent US20090246134A1",
  "about": "“COMPOSITIONS AND METHODS FOR MODULATING GATED ION CHANNELS” (PainCeptor Pharma Corporation, priority 2007, published 2009)",
  "key": {"[1]": {"test_system": "native sensory-neuron gated ion channels", "experiment": "Patch-clamp electrophysiology of sensory neurons in primary culture", "format": "cell-based, rat", "details": "n=3", "description": "This example describes another in vitro assessment of the inhibitory activity of the compounds of the present invention utilizing patch-clamp electrophysiology of sensory neurons in primary culture.\nSensory neurons can be isolated and cultured in vitro from different animal species. The most widely used protocols use sensory neurons isolated from neonatal (Eckert, et al. (1997) J Neurosci Methods 77:183-190) and embryonic (Vasko, et al. (1994) J Neurosci 14:4987-4997) rat. […] Electrophysiology is performed similarly as described above in Example 2. In the voltage-clamp mode, trans-membrane currents are recorded. Compounds A and H at 1 μM inhibit the pH 6.5-induced inward current. In the current-clamp mode, change in the trans-membrane potential are recorded. Under acidic conditions (e.g., pH 6.5) the membrane depolarizes, leading to the firing of action potentials. Compounds A and H at 1 μM inhibit the acid-induced membrane depolarization and reduce the ensuing rate of action potential firing."}, "[2]": {"test_system": "formalin-induced pain in Sprague-Dawley rats", "experiment": "Formalin model of acute tonic pain", "format": "in vivo, rat", "description": "Male Sprague-Dawley rats are housed together in groups of three animals under standard conditions with unrestricted access to food and water. All experiments are conducted according to the ethical guidelines for investigations of experimental pain in conscious animals (Zimmerman, 1983)\nAssessment of formalin-induced flinching behavior in normal, uninjured rats (body weight 150-180 g) was made with the use of an Automated Nociception Analyser (University of California, San Diego, USA). Briefly, this involved placing a small C-shaped metal band (10 mm wide×27 mm long) on the hindpaw of the rat to be tested. The rats (four rats were included in each testing session) were then placed in a cylindrical plexiglass observation chamber (diameter 30.5 cm and height 15 cm) for 20 min for adaptation purposes prior to being administered drug or vehicle according to the experimental paradigm being followed. After adaptation, individual rats were then gently restrained and formalin (5% in saline, 50 μl, s.c.) was injected into the plantar surface of the hindpaw using a 27 G needle. Rats were then returned to their separate observation chambers, each of which were in turn situated upon an enclosed detection device consisting of two electromagnetic coils designed to produce an electromagnetic field in which movement of the metal band could be detected. The analogue signal was then digitised and a software algorithm (LabView) applied to enable discrimination of flinching behaviour from other paw movements. A sampling interval of 1 min was used and on the basis of the resulting response patterns 5 phases of nociceptive behaviour were identified and scored: first phase (P1; 0-5 min), interphase (Int; 6-15 min), second phase (P2; […]), phase 2A (P2A; 16-40 min) and phase 2B (P2B; 41-60 min).\nNociceptive behavior was also determined manually every 5 min by measuring the amount of time spent in each of four behavioral categories: 0, treatment of the injected hindpaw is indistinguishable from that of the contralateral paw; 1, the injected paw has little or no weight placed on it; 2, the injected paw is elevated and is not in contact with any surface; 3, the injected paw is licked, bitten, or shaken. A weighted nociceptive score, ranging from 0 to 3 was calculated by multiplying the time spent in each category by the category weight, summing these products, and dividing by the total time for each 5 min block of time. (Coderre et al., Pain 1993; 54: 43). On the basis of the resulting response patterns, 2 phases of nociceptive behavior were identified and scored: first phase (P1; 0-5 min), interphase (Int; 6-15 min), second phase (P2; […]), phase 2A (P2A; 16-40 min) and phase 2B (P2B; 41-60 min).\nStatistical analysis was performed using Prism™ 4.01 software package (GraphPad, San Diego, Calif., USA). The difference in response levels between treatment groups and control vehicle group was analyzed using an ANOVA followed by Bonferroni's method for post-hoc pair-wise comparisons. A p value<0.05 was considered to be significant\nThe effect of Compound A on pain induced by intraplantar formalin injection was investigated. Compound A was administered i.p. 30 min. before the formalin. Compound A was able to reduce the total pain score behavior (flinching, licking, biting) in phase 1 and 2 of the formalin test."}, "[3]": {"test_system": "CFA-induced change in weight bearing in Sprague-Dawley rats", "experiment": "CFA model of chronic inflammatory pain, hindpaw weight bearing", "format": "in vivo, rat", "details": "24 h after CFA; 60 min after drug; Compound A 5, 10, 20 mg/kg i.p.; Compound H 10, 30, 60 mg/kg; morphine 3, 6, 10 mg/kg; n=7-8", "description": "Rats (body weight 260-300 g) were given a s.c. injection of CFA (50% in saline, 100 μl, Sigma) into the plantar surface of the hindpaw under brief halothane anaesthesia. After 24 h, they were then tested for hindpaw weight bearing responses, as assessed using an Incapacitance Tester (Linton Instrumentation, UK), (Zhu et al., 2005). The instrument incorporates a dual channel scale that separately measures the weight of the animal distributed to each hindpaw. While normal rats distribute their body weight equally between the two hindpaws (50-50), the discrepancy of weight distribution between an injured and non-injured paw is a natural reflection of the discomfort level in the injured paw (nocifensive behavior). The rats were placed in the plastic chamber designed so that each hindpaw rested on a separate transducer pad. […] For each rat, three readings from each paw were taken and then averaged. Side-to-side weight bearing difference was calculated as the average of the absolute value of the difference between two hindpaws from three trials (right paw reading-left paw reading).\nHindpaw weight bearing responses were measured in male Sprague-Dawley rats for 2-3 days prior to being given a hindpaw injection of CFA. Twenty-four hours later baseline responses were measured and rats were then administered Compound A (5, 10 and 20 mg/kg, i.p.), Compound H (10, 30 and 60 mg/kg) and morphine (3, 6 and 10 mg/kg). Weight bearing responses were then measured at 30, 60 and 120 min after drug or vehicle injection (data shown at 60 min.). […] All groups n=7-8."}, "[4]": {"experiment": "Liver microsomes stability and metabolite identification (LC-MS), dog", "format": "in vitro ADME"}, "[5]": {"details": "i.p. 30 min before formalin, n=6-8"}, "[6]": {"details": "dog microsomes 60 min (samples 23-25)"}},
  "note": "Values joined by “and” are separate entries in the source; they are usually repeats but may differ in a detail not shown here. Equal entries are not always repeated.",
  "data": [
    {"smiles": "COc1ccc(F)cc1-c1cc2c(c3c1CCN(C)C3)NC(=O)C2=NO", "note": "[Compound A, 5-(5-fluoro-2-methoxyphenyl)-6,7,8,9-tetrahydro-3-(hydroxyimino)-8-methyl-1H-pyrrolo[3,2-h]isoquinoline-2(3H)-one]", "values": [
      {"measurement": "acid-induced membrane depolarization", "setting": "[1]; current-clamp mode, 1 μM", "value": "inhibit"},
      {"measurement": "rate of action potential firing", "setting": "[1]; current-clamp mode, acidic conditions, 1 μM", "value": "reduce"},
      {"measurement": "activity of native sensory-neuron gated ion channels", "setting": "[1]", "value": "effectively modulate"},
      {"measurement": "pH 6.5-induced inward current", "setting": "[1]; voltage-clamp mode, 1 μM", "value": "inhibit"},
      {"measurement": "ED50", "setting": "[2]; Rattus norvegicus, ip, i.p. 30 min before formalin, read-out: ED50, Phase 2 of the total pain score", "value": "~12", "unit": "mg/kg"},
      {"measurement": "relationship between dose and plasma exposure", "setting": "[2]; formalin experiments, i.p.", "value": "linear relationship"},
      {"measurement": "effects on phases 1 and 2, specific pain behaviors (licking and biting) only", "setting": "[2]; [5]", "value": "quite pronounced"},
      {"measurement": "total pain score behavior (flinching, licking, biting) in phase 1 and 2 of the formalin test", "setting": "[2]; [5]", "value": "reduce"},
      {"measurement": "acute tonic pain induced by formalin injection in the paw", "setting": "[2]; rat, in vivo", "value": "block"},
      {"measurement": "CFA-induced change in weight bearing compared with vehicle", "setting": "[3]", "value": "marked dose-dependent attenuation"},
      {"measurement": "Total % metabolites", "setting": "[4]; % peak area relative to parent at T0, 60 min incubation, dog microsomes", "value": 2.74, "unit": "%"},
      {"measurement": "Compound A metabolite identification: m/z 342", "setting": "[4]; [6]", "value": "weak"},
      {"measurement": "Compound A metabolite identification: m/z 356 (parent)", "setting": "[4]; [6]", "value": "Yes"},
      {"measurement": "Compound A metabolite identification: m/z 372", "setting": "[4]; [6]", "value": "Yes"},
      {"measurement": "Compound A metabolite identification: m/z 412", "setting": "[4]; [6]", "value": "no"},
      {"measurement": "Calc. Conc.", "setting": "[4]; dog microsomes, time 0 min", "value": "4.71 µM and 5.14 µM"},
      {"measurement": "Calc. Conc.", "setting": "[4]; dog microsomes, time 60 min", "value": "3.95 µM and 4.05 µM and 4.10 µM"}
    ]}
  ]
}
